Laboratory results reported in patent publication US20240408112A1, “METHOD FOR PREVENTING OR TREATING PULMONARY ARTERIAL HYPERTENSION BY USING 7-DEHYDROCHOLESTEROLS OR SALTS, OXIDES, METABOLITES, OR DERIVATIVES THEREOF” (EXCELSIOR PHARMATECH LABS., priority 2023, published 2024).

Tests used:
[1] = test system: normal rat pulmonary artery smooth muscle cells (rPASMC CON); experiment: BrdU cell proliferation assay, 10% FBS, rPASMC CON; assay type: cell-based; settings: Rattus norvegicus, read-out: EC50 (concentration for 50% of maximal effect)
Protocol: (§1) BrdU (5-bromo-2-deoxyuridine) cell proliferation assay (BrdU assay)
(§2) A 48-well plate was used, and 1.5×10^4 cells were implanted in each well. After 24 hours, the medium was changed to serum-free culture medium and synchronized for 24 hours. A 2-fold concentration of the compound in serum-free culture medium is prepared and the cells were pretreated for 1 hour. Then, the same volume of culture medium containing 20% fetal bovine serum (FBS) was added to dilute the compound. The final concentration was 10% FBS culture medium and 1 times the concentration of the compound. In the experimental group that added TGF-β, the same volume of TGF-β culture medium containing 10 ng/mL was added, with a final concentration of 5 ng/mL TGF-β and 1 times the concentration of the compound, and in the experimental group added with TGF-β, the entire process was conducted in culture medium containing 0.1% serum. Then, BrdU reagent was added about 6 hours later, and the cells were collected the next day for enzyme-linked immunosorbent assay (ELISA) analysis, the compound treatment time was about 24 hours, and the BrdU treatment time was about 18 hours.
(§3) Five compounds to be tested were screened by cell survival assay (MTT assay) and BrdU (5-bromo-2-deoxyuridine) cell proliferation assay, and the information of these compounds was listed in Table 1 below. Tables 2 and 3 respectively listed the growth inhibitions of on human pulmonary artery endothelial cells (hPAEC), human pulmonary artery smooth muscle cells (hPASMC), normal rat pulmonary artery smooth muscle cells (rPASMC, as the control group, represented by “CON”), and rat pulmonary artery smooth muscle cells (represented by “MCT”), by the five compounds to be tested under the conditions of 10% FBS, 0.1% FBS and 100 pM TGF-β.

[2] = test system: normal rat pulmonary artery smooth muscle cells (rPASMC CON); experiment: BrdU cell proliferation assay, 0.1% FBS, 100 pM TGF-β, rPASMC CON; assay type: cell-based; settings: Rattus norvegicus
Protocol: as §1
as §2, with “with a final concentration of 5 ng/mL TGF-β and 1 times the concentration” left out
Five compounds to be tested were screened by cell survival assay (MTT assay) and BrdU (5-bromo-2-deoxyuridine) cell proliferation assay, and the information of these compounds was listed in Table 1 below.

[3] = test system: human pulmonary artery endothelial cells (hPAEC); experiment: BrdU cell proliferation assay, 10% FBS, hPAEC; assay type: cell-based; settings: Homo sapiens, Endothelial cell, read-out: EC50 (concentration for 50% of maximal effect)
Protocol: as §1, §2, §3

[4] = test system: PAH rat pulmonary artery smooth muscle cells (rPASMC MCT); experiment: BrdU cell proliferation assay, 10% FBS, rPASMC MCT; assay type: cell-based; settings: Rattus norvegicus, read-out: EC50 (concentration for 50% of maximal effect)
Protocol: as §1, §2, §3

[5] = test system: PAH rat pulmonary artery smooth muscle cells (rPASMC MCT); experiment: BrdU cell proliferation assay, 0.1% FBS, 100 pM TGF-β, rPASMC MCT; assay type: cell-based; settings: Rattus norvegicus
Protocol: as §1, §2, §3

[6] = test system: human pulmonary artery smooth muscle cells (hPASMC); experiment: BrdU cell proliferation assay, 10% FBS, hPASMC; assay type: cell-based; settings: Homo sapiens, read-out: EC50 (concentration for 50% of maximal effect)
Protocol: as §1, §2, §3

[7] = test system: human pulmonary artery smooth muscle cells (hPASMC); experiment: BrdU cell proliferation assay, 0.1% FBS, 100 pM TGF-β, hPASMC; assay type: cell-based; settings: Homo sapiens
Protocol: as §1, §2, §3

[8] = test system: human pulmonary artery endothelial cells (hPAEC); experiment: BrdU cell proliferation assay, 0.1% FBS, 100 pM TGF-β, hPAEC; assay type: cell-based; settings: Homo sapiens, Endothelial cell
Protocol: as §1, §2, §3

[9] = test system: monocrotaline induced pulmonary arterial hypertension rat; experiment: Monocrotaline-induced pulmonary arterial hypertension rat model, Example 3 (7-DHC vs macitentan); assay type: in vivo; settings: 30 mg/kg oral
Description: (§4) Pulmonary arterial hypertension animal experimental model
(§5) The present disclosure utilizes injection of monocrotaline to induce symptoms of pulmonary arterial hypertension in rats to establish a pulmonary arterial hypertension animal experimental model suitable for screening test drugs.
(§6) The diagnostic method of clinical pulmonary arterial hypertension standards is right heart catheterization, which is defined as mean pulmonary arterial pressure (mPAP) greater than or equal to 20 mmHg. The diagnostic criteria for pulmonary arterial hypertension, in addition to an increase in mean pulmonary arterial pressure, need to be combined with pulmonary vascular resistance (PVR) greater than 3 Wood unit. The right ventricle pressure (RVP) and systemic mean blood pressure (mbp) in rats with pulmonary arterial hypertension were measured by Millar Model PCU200 pressure system, and the heart rate (HR) was also monitored at the same time. After measuring the hemodynamic data, the arterial blood was extracted from the carotid artery of the pulmonary arterial hypertension rat, and the Abbott blood oximeter (i-STAT) combined with Abbott's special chip cartridge (i-STAT Cartridge G3+) was used to measure arterial gas analysis data such as pH, PaO2, PaCO2, HCO3 and base excess (BE) value in quantitative whole blood samples. The normal pH value is between 7.35 and 7.45, and the pH value indicates whether the experimental animal has the condition of acidemia, alkalemia, acidosis or alkalosis. The normal value of PaO2 is between 80 and 100 mmHg, which reflects the effectiveness of gas exchange (ventilation/perfusion). The normal value of PaCO2 is between 35 and 45 (such as 38 and 42) mmHg, which can evaluate the effectiveness of alveolar ventilation. The acid produced by food, tissue decomposition, inflammation and hypoxia rely on the lungs to excrete volatile acid CO2 (short-term) and the bicarbonate (HCO3^−) produced by the kidneys (long-term) to neutralize non-volatile acids, while the normal value of bicarbonate hydrogen radical (HCO3^−) is between 22 and 26 meq/L. BE is the base excess value, its normal value ranges from −2 to +2, the negative value represents the degree of alkali ion deficiency in the blood, a negative BE value (−) that is too high indicates metabolic acidosis, and a positive value (+) that is too high is metabolic alkalosis. At the end of the experiment, the rats were sacrificed and their hearts were removed and the left and right ventricles were separated and weighed (RV)/(S)+(LV).
Monocrotaline was utilized to induce pulmonary arterial hypertension rat animal model, intraperitoneal injection (IP) TGF-β receptor inhibitor 7-DHC (039) and oral administration of macitentan (soluble in methylcellulose), 7-DHC (039) was divided into two groups according to the dosage: 10 mg/kg or 20 mg/kg, and the dosage of macitentan group was 30 mg/kg.

[10] = test system: TGF-β-stimulated PAI-1 promoter activity; experiment: TGF-β stimulated Pai-1 luciferase assay in MLECs-clone32 cells; assay type: cell-based; settings: TGF-β 50 pM, 4 hours, read-out: IC50 value of compound inhibiting TGF-β-stimulated Pai-1 luciferase activity (%)
Description: TGF-β Stimulated Pai-1 Luciferase Assay
MLECs-clone32 cell line was used to measure the impact of different compounds on the downstream gene, plasminogenactivator inhibitor 1 (PAI-1) performance stimulated by TGF-β. MLECs-clone32 is an expression construct that is stably transfected for the Mv1Lu cell line, and the expression construct PAI-1 Luciferase contains a truncated (PAI-1) promoter fused to the firefly luciferase reporter gene^11,12. The activity stimulated by the truncated PAI-I promoter was quantified by using a luciferase assay. The luciferase activity stimulated by TGF-β in cells without compound treatment was set as 100%, and the effects of each compound on TGF-β-stimulated PAI-I promoter activity were compared. The steps for measuring Pai-1 luciferase activity include using a 96-well plate (DMEM medium containing 10% FBS), seeding each well with 1.5×10^5 cells, and culturing in an incubator overnight. After discarding the medium the next day, cells in DMEM medium with or without the addition of test compounds were treated with recombinant TGF-β (50 pM) and allowed to react in a 37° C. incubator for 4 hours. The cell culture medium was aspirated, washed with PBS, and the activity of Pai-1 luciferase was evaluated by luciferase assay.

[11] = test system: monocrotaline induced pulmonary hypertension rat; experiment: Monocrotaline-induced pulmonary arterial hypertension rat model, Example 2 (7-DHC, 042); assay type: in vivo; settings: 50 mg/kg IP
Description: as §4, §5, §6
Monocrotaline (MCT) was utilized to induce pulmonary hypertension rat animal model, the TGF-β receptor inhibitor 7-DHC (039) and compound No. 042 were tested via intraperitoneal (IP) administration, and the physiological parameters of the animals were collected, wherein includes measuring right ventricle pressure, systemic arterial pressure, heartbeat and right ventricle hypertrophy, as well as observing and analyzing the pulmonary artery thickening and blood oxygenation levels through pathological sections of lung tissue. Specifically, 7-DHC (039) was divided into two groups with a dosage of 10 mg/kg or 20 mg/kg, the dosage of group 042 was 50 mg/kg, each dosage group has 3 rats (n=3), while the control group (CON) and the pulmonary arterial hypertension rat group (MCT) had 6 rats (n=6) respectively.

[12] = CON (normal rPASMC), 100 pM TGF-β, 0.1% FBS, read-out: EC50
[13] = MCT (PAH rPASMC), 100 pM TGF-β, 0.1% FBS, read-out: EC50
[14] = hPASMC, 100 pM TGF-β, 0.1% FBS, read-out: EC50
[15] = hPAEC, 100 pM TGF-β, 0.1% FBS, read-out: EC50

| Structure (SMILES) | EC50 [1] [µM] | EC50 [2, 12] [µM] | EC50 [3] [µM] | EC50 [4] [µM] | EC50 [5, 13] [µM] | EC50 [6] [µM] | EC50 [7, 14] [µM] | EC50 [8, 15] [µM] | IC50 [10] [µM] | also measured |
| --- | --- | --- | --- | --- | --- | --- | --- | --- | --- | --- |
| CCCNS(=O)(=O)Nc1ncnc(OCCOc2ncc(Br)cn2)c1-c1ccc(Br)cc1 [Code 053, Macitentan] | 142 | 96 | 175 | 114 | 87 | 100 | 59 | 40 | 82.9 | Blood vessel thickening, in words [9]: reduction in blood vessel thickening was also observed; Survival rate compared with the 7-DHC (039) group, in words [9]: significantly worse; Animal survival status ([9]; 23rd day after monocrotaline induction): died; Body weight and activity of the rats ([9]; second week of administration): not greatly affected |
| O=c1cc(-c2ccccc2)oc2cc(O)c(O)c(O)c12 [Code 042, Baicalein] |  | 52 | 20 |  | 9 | 5 | 4 | 15 | 14.8 | Right ventricle hypertrophy (RV/S+LV), in words ([11]; compared with MCT rats): slightly lower; Weight and activity of the rats ([11]; second week of administration, sacrificed early on day 21): significantly decreased |
| O=C(O)[C@H](O)Cc1ccc(O)c(O)c1 [Code 056, Danshensu] | 35 |  | 272 | 25 |  | 124 |  |  |  | EC50 [2]: 50 µM; EC50 [5]: 36 µM; EC50 [7]: 100 µM; EC50 [8]: 155 µM |
| CC(C)CCC[C@@H](C)[C@H]1CC[C@H]2C34C=CC5(C[C@@H](OC(=O)CBr)CC[C@]5(C)[C@H]3CC[C@]12C)n1c(=O)n(C)c(=O)n14 (stereo partly shown) [Code 203, MeTC7] |  |  |  |  |  |  |  |  | 17.5 |  |
| O=c1c(O)c(-c2ccc(O)c(O)c2)oc2cc(O)ccc12 [Code 050, Fisetin] |  | 106 |  |  | 79 |  | 35 | 40 | 44.1 | EC50 ([1]; CON (normal rPASMC), 10% FBS): 59 µM; EC50 ([3]; hPAEC, 10% FBS): 22 µM; EC50 ([4]; MCT (PAH rPASMC), 10% FBS): 38 µM; EC50 ([6]; hPASMC, 10% FBS): 27 µM |
